Experiment: xn = mol fraction of the nth substance listed

CCCC[N+](CCCC)(CCCC)CCCC.[OH-] + CC(=O)N(C)C
viscosity [mPa·s], 101 kPa
Conditions	298.15 K	303.15 K	308.15 K	313.15 K
x1 = 0.0124	1.15	1.05	0.97	0.9
x1 = 0.0388	1.63	1.47	1.38	1.23
x1 = 0.0678	2.15	1.97	1.81	1.64
x1 = 0.0996	2.67	2.47	2.25	2.06
x1 = 0.1348	3.16	2.96	2.7	2.49
x1 = 0.1538	3.44	3.22	2.96	2.71
x1 = 0.1951	3.94	3.74	3.48	3.21
x1 = 0.2666	4.74	4.48	4.21	3.94
x1 = 0.3529	5.43	5.15	4.9	4.62
x1 = 0.4589	6.02	5.73	5.48	5.21
x1 = 0.5925	6.45	6.2	5.97	5.73
x1 = 0.7026	6.63	6.37	6.14	5.93
x1 = 0.8358	6.66	6.42	6.19	5.99

[Cl-].[Cl-].[Cl-].[La+3] + O
viscosity [mPa·s]
Conditions	293.15 K	298.15 K	303.15 K	308.15 K	318.15 K
100 kPa, x1 = 0.000538	1.026	0.9124	0.8179	0.7374	–
100 kPa, x1 = 0.000907	1.037	0.922	0.8265	0.7452	–
100 kPa, x1 = 0.001802	–	0.9485	0.8506	0.7674	–
100 kPa, x1 = 0.003595	1.12	0.9971	0.8947	0.8106	–
100 kPa, x1 = 0.005372	–	–	0.9462	0.857	–
100 kPa, x1 = 0.007147	–	–	–	0.9116	–
100 kPa, x1 = 0.008936	–	–	1.076	0.9725	–
100 kPa, x1 = 0.0107	–	–	–	1.041	–
101 kPa, x1 = 0.008899	–	–	1.075	–	–
101.3 kPa, x1 = 0.0009	1.037	0.9217	0.8261	0.7453	0.618
101.3 kPa, x1 = 0.0018	–	–	–	0.7687	0.6382
101.3 kPa, x1 = 0.00893	–	–	1.076	0.9735	0.8112
101.3 kPa, x1 = 0.0177	1.818	1.623	1.46	1.322	1.102
101.3 kPa, x1 = 0.02631	2.522	2.246	2.016	1.824	1.516
101.3 kPa, x1 = 0.03478	3.611	3.199	2.857	2.573	2.12
101.3 kPa, x1 = 0.0431	5.287	4.642	4.114	3.678	2.992
101.3 kPa, x1 = 0.05127	7.977	6.922	6.069	5.371	4.29

CC(Cl)(Cl)Cl + CCC(C)=O
298.15 K, 101.33 kPa
Conditions	viscosity [mPa·s]
x1 = 0.098	0.4094
x1 = 0.201	0.438
x1 = 0.299	0.4678
x1 = 0.398	0.5001
x1 = 0.499	0.5361
x1 = 0.6	0.5757
x1 = 0.7	0.6196
x1 = 0.8	0.669
x1 = 0.9	0.7256

CC(Cl)(Cl)Cl + C1CCCCC1
303.15 K, 101 kPa
Conditions	viscosity [mPa·s]
x1 = 0.157	0.7897
x1 = 0.2218	0.776
x1 = 0.2876	0.7624
x1 = 0.3722	0.7462
x1 = 0.4768	0.7297
x1 = 0.543	0.7219
x1 = 0.679	0.713
x1 = 0.7525	0.7123
x1 = 0.8597	0.716
x1 = 0.9403	0.7201

O=CO + CO
303.15 K, 101 kPa
Conditions	viscosity [mPa·s]
x1 = 0.0714	0.573
x1 = 0.1463	0.609
x1 = 0.2264	0.641
x1 = 0.3137	0.658
x1 = 0.4031	0.677
x1 = 0.506	0.691
x1 = 0.6149	0.75
x1 = 0.7328	0.867
x1 = 0.8604	1.062

CCCCCBr + c1ccccc1
308.15 K, 101 kPa
Conditions	viscosity [mPa·s]
x2 = 0.0961	0.6279
x2 = 0.2061	0.6028
x2 = 0.2972	0.5854
x2 = 0.3978	0.5636
x2 = 0.4978	0.5452
x2 = 0.5868	0.5316
x2 = 0.7022	0.5149
x2 = 0.8752	0.5028
x2 = 0.9275	0.503

CC(Cl)(Cl)Cl + COCC(C)O
298.15 K, 101.33 kPa
Conditions	viscosity [mPa·s]
x1 = 0.101	1.508
x1 = 0.2	1.362
x1 = 0.3	1.232
x1 = 0.4	1.119
x1 = 0.501	1.021
x1 = 0.601	0.9385
x1 = 0.7	0.8715
x1 = 0.72	0.8596
x1 = 0.837	0.8044
x1 = 0.908	0.785

CC(Cl)(Cl)Cl + C[N+](=O)[O-]
298.15 K, 101.33 kPa
Conditions	viscosity [mPa·s]
x1 = 0.101	0.6114
x1 = 0.201	0.6128
x1 = 0.251	0.6165
x1 = 0.301	0.622
x1 = 0.351	0.6284
x1 = 0.4	0.6356
x1 = 0.451	0.6435
x1 = 0.5	0.6518
x1 = 0.55	0.6607
x1 = 0.551	0.6609
x1 = 0.6	0.6702
x1 = 0.65	0.6803
x1 = 0.651	0.6805
x1 = 0.7	0.6912
x1 = 0.749	0.703
x1 = 0.812	0.7202
x1 = 0.867	0.7375

O=CO + c1ccncc1
viscosity [mPa·s], 101 kPa
Conditions	298.15 K	323.15 K
x1 = 0.1605	0.9921	0.7018
x1 = 0.3041	1.235	0.8411
x1 = 0.4426	1.783	1.154
x1 = 0.5254	2.414	1.515
x1 = 0.6438	4.255	2.347
x1 = 0.7065	5.476	2.846
x1 = 0.7478	6.13	3.143
x1 = 0.7762	6.161	3.202
x1 = 0.8243	5.312	2.873
x1 = 0.8859	3.778	2.192
x1 = 0.9381	2.657	1.616

CCCCCBr + Cc1ccc(C)cc1
308.15 K, 101 kPa
Conditions	viscosity [mPa·s]
x2 = 0.1026	0.6316
x2 = 0.1991	0.6138
x2 = 0.304	0.5958
x2 = 0.4033	0.5803
x2 = 0.503	0.5655
x2 = 0.6052	0.5526
x2 = 0.7021	0.5436
x2 = 0.8	0.5318
x2 = 0.9034	0.5238

Cc1ccc(O)cc1C + CC12CCC(CC1=O)C2(C)C
101.33 kPa, x1 = 0.7
Conditions	viscosity [mPa·s]
293.15 K	25.37
298.15 K	18.86
303.15 K	14.61
308.15 K	11.42
313.15 K	9.026
318.15 K	7.494
323.15 K	6.189

From the CheMixHub viscosity set
